In US12595262B2, “PRMT5 inhibitors” (MERCK SHARP & DOHME LLC, priority 2019, dated 2026):

Assays:
[1] = molecular target: T1, PRMT5-MEP50 enzyme complex (Homo sapiens, UniProt O14744); assay: PRMT5-MEP50 Enzyme Methylation Assay; format: biochemical; conditions: recombinant full-length PRMT5-MEP50 1.0 nM, 75 nM biotinylated H4R3(Me1) peptide, 15 μM SAM; 60 minutes pre-incubation, 150 minutes at 37° C.
T1 construct: 1.25 nM of Full-length (FL)-PRMT5-MEP50 enzyme complex; made in house; host or cells: baculovirus-transfected Sf21 cells
Description: PRMT5-MEP50 Enzyme Methylation Assay
PRMT5-MEP50 biochemical assay is a direct measurement of the methylation activity of the enzyme complex on a short peptide substrate derived from the N-terminus of H4 histone. Methylation experiment was performed with recombinant PRMT5-MEP50 protein complex. The assessment of inhibitory effect of small molecules was measured by the effectiveness of the compounds to inhibit this reaction (EC50).
In this assay, the potency (EC50) of each compound was determined from a twenty-point (1:2 serial dilution; top compound concentration of 100000 nM) titration curve using the following outlined procedure. To each well of a white ProxiPlus 384 well-plate, 100 nL of compound (1% DMSO in final assay volume of 10 μL) was dispensed, followed by the addition of 8 μL of 1× assay buffer (50 mM Bicine pH 8.0, 1 mM DTT, 0.004% Tween20, 0.01% BSA) containing 1.25 nM of Full-length (FL)-PRMT5-MEP50 enzyme complex (recombinant proteins from baculovirus-transfected Sf21 cells: FL-PRMT5; MW=[…] and FL-MEP50; MW=38614) and 1 μL of 150 μM S-(5′-Adenosyl)-L-Methionine Chloride (SAM). Plates were sealed and placed in a 37° C. humidified chamber for a 60 minutes pre-incubation with compound. Subsequently, each reaction was initiated by the addition of 1 μL 1× assay buffer containing 750 nM biotinylated H4R3(Me1) peptide. The final reaction in each well of 10 μL consists of 1.0 nM PRMT5-MEP50, 75 nM biotinylated-peptide, and 15 μM SAM. Methylation reactions were allowed to proceed for 150 minutes in a sealed plate at 37° C. Reactions were immediately quenched by the addition of 1 μL of 5% formic acid. Plates were then frozen and shipped to SAMDITM Tech Inc. to determine the percent conversion from H4R3(Me1) to H4R3(Me2). Dose-response curves were generated by plotting percent effect (% product conversion; Y-axis) vs. Log10 compound concentrations (X-axis). EC50 values were determined by non-linear regression according to models for sigmoidal (4 parameters) dose-response curves.

PRMT5 = molecular target: T2, PRMT5 (Homo sapiens, UniProt O14744); assay: PRMT5 Cell Target Engagement (TE) Assay; format: cell-based; conditions: MCF-7 cells, treated for 3 days; symmetrically dimethylated (SDMA) nuclear proteins by high content imaging
T2 construct: endogenous in cells; host or cells: MCF-7
Excerpt: PRMT5 Cell Target Engagement (TE) Assay
The PRMT5 TE assay is a biomarker assay for identifying compounds that inhibit symmetric dimethylation of arginine (SDMA) of PRMT5 substrates. The following substrates have been reported for PRMT5: histone H2A and H4 R3, Histone H3 R2, Histone H3 R8, spliceosome Sm proteins, ribosomal protein RPS10, p53, FEN1, nucleoplasmin, nucleolin, EGFR and EBNA. The assay focuses on detecting symmetrically dimethylated nuclear proteins using high content imaging technology. Detection of the expression of symmetrically dimethylated nuclear proteins is through a mixture of primary rabbit monoclonal antibodies to SDMA (CST 13222), which in turn recognized by an Alexafluor 488 dye-conjugated anti-rabbit IgG secondary antibody. The IN Cell Analyzer 2200 or Opera-Phenix measures nuclear Alexafluor 488 fluorescent dye intensity that is directly related to the level of expression of symmetrically dimethylated nuclear proteins at the single cell level. Nuclear AF488 dye intensities are compared to the mean value for DMSO treated cells (MIN) to report percent of inhibition for each compound-treated well.
In this assay, the cell potency (EC50) of each compound was determined from a ten point (1:3 serial dilution; top compound concentration of 10000 nM) titration curve using the following outlined procedure. Each well of a BD falcon collagen coated black/clear bottom 384-well plate was seeded with 4000 MCF-7 cells in 30 μl media and allowed to attach for 5 h. Media is ATCC-formulated Eagle's Minimum Essential Medium, Catalog No. 30-2003. To make the complete growth medium, the following components were added to the base medium: 0.01 mg/mL human recombinant insulin; fetal bovine serum to a final concentration of 10%. Additional 30 µl of media containing 2× compounds were added to each well. Cells were treated for 3 days in 37° C. CO2 incubator. On day 3, cells were fixed with Cytofix, permeabilized with 0.4% Triton-X-100/Cytofix, and washed with D-PBS without Ca/Mg. Cells were blocked with Licor Odessey blocking reagent for 1 h at room temperature, followed by incubation with anti-SDMA (1:1000) antibody at 4° C. overnight. 1° antibody was removed, followed by three washings with DPBS without Ca/Mg and 0.05% Tween20. Hoechst (5 μg/mL), Cell Mask deep stain (1:2000) and Alexa488-conjugated goat anti-rabbit IgG (2 μg/mL) was added for 1 h at room temperature. A final washing step (three washes) was performed before sealing plate for imaging on In Cell Analyzer 2200 or Opera-Phenix. Images from analyzer were uploaded to Columbus (at WP or BOS) for image analysis. IC50 values were determined by 4 parameters robust fit of percent fluorescence units vs. (Log10) compound concentrations.

T2 sequence (O14744 whole entry): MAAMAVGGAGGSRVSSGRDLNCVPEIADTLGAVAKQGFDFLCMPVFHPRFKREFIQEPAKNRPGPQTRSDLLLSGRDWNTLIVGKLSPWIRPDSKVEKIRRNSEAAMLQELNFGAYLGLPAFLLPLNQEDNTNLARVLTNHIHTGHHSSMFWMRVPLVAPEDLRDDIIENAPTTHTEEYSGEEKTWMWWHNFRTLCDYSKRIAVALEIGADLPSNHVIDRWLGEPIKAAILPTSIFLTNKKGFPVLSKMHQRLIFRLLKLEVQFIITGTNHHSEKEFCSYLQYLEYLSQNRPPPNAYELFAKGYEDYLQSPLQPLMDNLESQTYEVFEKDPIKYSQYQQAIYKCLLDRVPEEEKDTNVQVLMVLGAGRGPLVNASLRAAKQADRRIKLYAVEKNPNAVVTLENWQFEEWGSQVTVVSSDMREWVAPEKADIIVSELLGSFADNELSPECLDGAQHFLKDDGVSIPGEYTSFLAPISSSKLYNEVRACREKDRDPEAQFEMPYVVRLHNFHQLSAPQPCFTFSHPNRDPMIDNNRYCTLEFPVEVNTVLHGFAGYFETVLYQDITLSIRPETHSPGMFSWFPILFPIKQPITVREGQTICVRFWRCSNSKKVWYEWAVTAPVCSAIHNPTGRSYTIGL
T2 sequence (Q9BQA1 whole entry partner): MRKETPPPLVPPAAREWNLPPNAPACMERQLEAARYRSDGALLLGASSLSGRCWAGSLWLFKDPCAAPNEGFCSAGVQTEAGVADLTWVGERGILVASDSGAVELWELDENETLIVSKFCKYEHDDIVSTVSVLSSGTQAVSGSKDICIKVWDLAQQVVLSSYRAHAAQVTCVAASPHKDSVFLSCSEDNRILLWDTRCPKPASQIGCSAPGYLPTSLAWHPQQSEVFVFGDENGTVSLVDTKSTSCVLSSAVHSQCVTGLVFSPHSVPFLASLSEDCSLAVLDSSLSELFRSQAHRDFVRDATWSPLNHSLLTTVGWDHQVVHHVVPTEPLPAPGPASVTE
T1 sequence (O14744 whole entry): as the sequence (O14744 whole entry) above
T1 sequence (Q9BQA1 whole entry partner): as the sequence (Q9BQA1 whole entry partner) above

Compound | EC50 [1] | EC50 (PRMT5)
CC(=O)N1CCC(Nc2cc(C(=O)N3CC[C@H](N4CCc5ccccc5C4)[C@@H](O)C3)c(F)cn2)CC1 [Example 1, 1-{4-[(4-{[(3S,4S)-4-(3,4-dihydroisoquinolin-2(1H)-yl)-3-hydroxypiperidin-1-yl]carbonyl}-5-fluoropyridin-2-yl)amino]piperidin-1-yl}ethanone] | 0.9 nM | 6.9 nM
[2H]C1([2H])c2ccccc2CCN1[C@H]1CCN(C(=O)c2cc(NC3CCN(C(C)=O)CC3)ncc2F)C[C@@H]1O [Example 1b, 1-(4-((4-((3S,4S)-4-(3,4-dihydroisoquinolin-2(1H)-yl-1,1-d2)-3-hydroxypiperidine-1-carbonyl)-5-fluoropyridin-2-yl)amino)piperidin-1-yl)ethan-1-one] | 0.9 nM | 2 nM
[2H]C1([2H])c2ccccc2CCN1[C@@H]1CCN(C(=O)c2cc(NC3CCN(C(C)=O)CC3)ncc2F)C[C@H]1O [Example 1c, 1-(4-((4-((3R,4R)-4-(3,4-dihydroisoquinolin-2(1H)-yl-1,1-d2)-3-hydroxypiperidine-1-carbonyl)-5-fluoropyridin-2-yl)amino)piperidin-1-yl)ethan-1-one] | – | 165 nM
O=C(c1cn2cc(C3CC3(F)F)cnc2n1)N1CC[C@H](N2CCc3ccccc3C2)[C@@H](O)C1 (stereo partly drawn) [Example 2, (6-(2,2-difluorocyclopropyl)imidazo[1,2-a]pyrimidin-2-yl)((3S,4S)-4-(3,4-dihydroisoquinolin-2(1H)-yl)-3-hydroxypiperidin-1-yl)methanone] | 1.6 nM | 4.7 nM
O=C(c1cn2cc(C3CC3)cnc2n1)N1CC[C@H](N2CCc3ccccc3C2)[C@@H](O)C1 [Example 3, (6-cyclopropylimidazo[1,2-a]pyrimidin-2-yl)((3S,4S)-4-(3,4-dihydroisoquinolin-2(1H)-yl)-3-hydroxypiperidin-1-yl)methanone] | 1.3 nM | 6.8 nM
CCc1nc2nc(C(=O)N3CC[C@H](N4CCc5ccccc5C4)[C@@H](O)C3)cn2cc1Br [Example 4, (6-bromo-7-ethylimidazo[1,2-a]pyrimidin-2-yl)((3S,4S)-4-(3,4-dihydroisoquinolin-2(1H)-yl)-3-hydroxypiperidin-1-yl)methanone] | 1.5 nM | 15 nM
